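Following 48 hours of exposure in 96-well plates, responses at five concentrations were used to interpolate endpoints linearly. GI50 marks 50% less growth. The concentration for full growth arrest is given as TGI.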
Experiments:
Assay in all cases: NCI tumour cell line growth inhibition, 48 h
UACC-257 melanoma = tested on: UACC-257 melanoma
A549 NSCLC = tested on: A549 NSCLC
HOP-62 NSCLC = tested on: HOP-62 NSCLC
HCT-15 colon = tested on: HCT-15 colon
OVCAR-5 ovarian = tested on: OVCAR-5 ovarian
HCT-116 colon = tested on: HCT-116 colon
ACHN renal = tested on: ACHN renal
SF-295 CNS = tested on: SF-295 CNS
RXF 393 renal = tested on: RXF 393 renal
SK-MEL-2 melanoma = tested on: SK-MEL-2 melanoma
SK-MEL-5 melanoma = tested on: SK-MEL-5 melanoma
KM12 colon = tested on: KM12 colon
SF-268 CNS = tested on: SF-268 CNS
NCI-H23 lung = tested on: NCI-H23 lung
SN12C renal = tested on: SN12C renal
M14 melanoma = tested on: M14 melanoma
SR leukemia = tested on: SR leukemia
K-562 leukemia = tested on: K-562 leukemia
HL-60(TB) leukemia = tested on: HL-60(TB) leukemia
UO-31 renal = tested on: UO-31 renal
UACC-62 melanoma = tested on: UACC-62 melanoma
RPMI-8226 leukemia = tested on: RPMI-8226 leukemia
SW-620 colon = tested on: SW-620 colon
HOP-92 NSCLC = tested on: HOP-92 NSCLC
HT29 colon = tested on: HT29 colon
OVCAR-8 ovarian = tested on: OVCAR-8 ovarian
NCI-H460 lung = tested on: NCI-H460 lung
U251 CNS = tested on: U251 CNS
CAKI-1 renal = tested on: CAKI-1 renal
SF-539 CNS = tested on: SF-539 CNS
MDA-MB-231 breast = tested on: MDA-MB-231 breast
OVCAR-4 ovarian = tested on: OVCAR-4 ovarian
SNB-19 CNS = tested on: SNB-19 CNS
OVCAR-3 ovarian = tested on: OVCAR-3 ovarian
COLO 205 colon = tested on: COLO 205 colon
MALME-3M melanoma = tested on: MALME-3M melanoma
MCF7 breast = tested on: MCF7 breast
CCRF-CEM leukemia = tested on: CCRF-CEM leukemia
T-47D breast = tested on: T-47D breast
SNB-75 CNS = tested on: SNB-75 CNS
PC-3 prostate = tested on: PC-3 prostate
IGROV1 ovarian = tested on: IGROV1 ovarian
HCC-2998 colon = tested on: HCC-2998 colon
NCI-H522 lung = tested on: NCI-H522 lung
MDA-MB-435 = tested on: MDA-MB-435
NCI/ADR-RES ovarian = tested on: NCI/ADR-RES ovarian
MOLT-4 leukemia = tested on: MOLT-4 leukemia
DU-145 prostate = tested on: DU-145 prostate
A498 renal = tested on: A498 renal
NCI-H226 lung = tested on: NCI-H226 lung
TK-10 renal = tested on: TK-10 renal
786-0 renal = tested on: 786-0 renal
LOX IMVI melanoma = tested on: LOX IMVI melanoma
BT-549 breast = tested on: BT-549 breast
HS 578T breast = tested on: HS 578T breast
SK-OV-3 ovarian = tested on: SK-OV-3 ovarian
SK-MEL-28 melanoma = tested on: SK-MEL-28 melanoma

C=CC(=O)N1CC2(CCC(n3nc(-c4ccc(Oc5ccccc5)cc4)c4c(N)ncnc43)CC2)C1
GI50 (UACC-257 melanoma): 1460 nM | TGI (UACC-257 melanoma): 8620 nM | GI50 (A549 NSCLC): 1460 nM | TGI (A549 NSCLC): 9410 nM | GI50 (HOP-62 NSCLC): 10.3 nM | TGI (HOP-62 NSCLC): 6500 nM | GI50 (HCT-15 colon): 200 nM | TGI (HCT-15 colon): 12100 nM | GI50 (OVCAR-5 ovarian): 130 nM | TGI (OVCAR-5 ovarian): 16600 nM | GI50 (HCT-116 colon): 40.7 nM | TGI (HCT-116 colon): 1880 nM | GI50 (ACHN renal): < 12.3 nM | TGI (ACHN renal): 362 nM | GI50 (SF-295 CNS): 2300 nM | TGI (SF-295 CNS): 15700 nM | GI50 (RXF 393 renal): 16.8 nM | TGI (RXF 393 renal): 267 nM | GI50 (SK-MEL-2 melanoma): 1500 nM | TGI (SK-MEL-2 melanoma): 3630 nM | GI50 (SK-MEL-5 melanoma): 1550 nM | TGI (SK-MEL-5 melanoma): 2970 nM | GI50 (KM12 colon): 3020 nM | TGI (KM12 colon): 10800 nM | GI50 (SF-268 CNS): 255 nM | TGI (SF-268 CNS): 6040 nM | GI50 (NCI-H23 lung): 4390 nM | TGI (NCI-H23 lung): 17300 nM | GI50 (SN12C renal): 179 nM | TGI (SN12C renal): 10600 nM | GI50 (M14 melanoma): 1430 nM | TGI (M14 melanoma): 5230 nM | GI50 (SR leukemia): 3350 nM | TGI (SR leukemia): 18900 nM | GI50 (K-562 leukemia): 698 nM | TGI (K-562 leukemia): 25600 nM | GI50 (HL-60(TB) leukemia): 3200 nM | TGI (HL-60(TB) leukemia): 10000 nM | GI50 (UO-31 renal): 46.8 nM | TGI (UO-31 renal): 1660 nM | GI50 (UACC-62 melanoma): 1020 nM | TGI (UACC-62 melanoma): 4850 nM | GI50 (RPMI-8226 leukemia): 1510 nM | TGI (RPMI-8226 leukemia): 5800 nM | GI50 (SW-620 colon): 3980 nM | TGI (SW-620 colon): 21700 nM | GI50 (HOP-92 NSCLC): < 14 nM | TGI (HOP-92 NSCLC): 366 nM | GI50 (HT29 colon): < 17.5 nM | TGI (HT29 colon): 1340 nM | GI50 (OVCAR-8 ovarian): 1850 nM | TGI (OVCAR-8 ovarian): 13100 nM | GI50 (NCI-H460 lung): 3430 nM | TGI (NCI-H460 lung): 16100 nM | GI50 (U251 CNS): 617 nM | TGI (U251 CNS): 12700 nM | GI50 (CAKI-1 renal): 28.3 nM | TGI (CAKI-1 renal): 709 nM | GI50 (SF-539 CNS): 174 nM | TGI (SF-539 CNS): 1910 nM | GI50 (MDA-MB-231 breast): 281 nM | TGI (MDA-MB-231 breast): 11100 nM | GI50 (OVCAR-4 ovarian): 1460 nM | TGI (OVCAR-4 ovarian): 14200 nM | GI50 (SNB-19 CNS): 1230 nM | TGI (SNB-19 CNS): 15700 nM | GI50 (OVCAR-3 ovarian): 641 nM | TGI (OVCAR-3 ovarian): 9610 nM | GI50 (COLO 205 colon): 143 nM | TGI (COLO 205 colon): 1280 nM | GI50 (MALME-3M melanoma): 1500 nM | TGI (MALME-3M melanoma): 9210 nM | GI50 (MCF7 breast): 424 nM | TGI (MCF7 breast): 11400 nM | GI50 (CCRF-CEM leukemia): 3650 nM | TGI (CCRF-CEM leukemia): 21900 nM | GI50 (T-47D breast): 19.7 nM | TGI (T-47D breast): 5890 nM | GI50 (SNB-75 CNS): < 15.1 nM | TGI (SNB-75 CNS): 174 nM | GI50 (PC-3 prostate): 1090 nM | TGI (PC-3 prostate): 9200 nM | GI50 (IGROV1 ovarian): < 12.5 nM | TGI (IGROV1 ovarian): 462 nM | GI50 (HCC-2998 colon): 4800 nM | TGI (HCC-2998 colon): 19600 nM | GI50 (NCI-H522 lung): 67.6 nM | TGI (NCI-H522 lung): 995 nM | GI50 (MDA-MB-435): 1740 nM | TGI (MDA-MB-435): 7130 nM | GI50 (NCI/ADR-RES ovarian): 1740 nM | TGI (NCI/ADR-RES ovarian): 17500 nM | GI50 (MOLT-4 leukemia): 1930 nM | TGI (MOLT-4 leukemia): 6390 nM | GI50 (DU-145 prostate): 368 nM | TGI (DU-145 prostate): 2210 nM | GI50 (A498 renal): < 22.3 nM | GI50 (NCI-H226 lung): 861 nM | TGI (NCI-H226 lung): 15000 nM | GI50 (TK-10 renal): 36.2 nM | TGI (TK-10 renal): 266 nM | GI50 (786-0 renal): 30.4 nM | TGI (786-0 renal): 1630 nM | GI50 (LOX IMVI melanoma): < 10.6 nM | TGI (LOX IMVI melanoma): 847 nM | GI50 (BT-549 breast): 245 nM | TGI (BT-549 breast): 9780 nM | GI50 (HS 578T breast): 108 nM | TGI (HS 578T breast): 1540 nM | GI50 (SK-OV-3 ovarian): 52.5 nM | TGI (SK-OV-3 ovarian): 787 nM | GI50 (SK-MEL-28 melanoma): 2450 nM | TGI (SK-MEL-28 melanoma): 14000 nM

Reference: PubChem BioAssay (NCI)
